Experimental data reported in US9663478B2, “Benzotriazine oxides as drugs targeting Mycobacterium tuberculosis” (priority 2011, dated 2017).
≈ marks a conversion by molar mass, not a printed value.

Tests used:
Mtb H37Rv = assay: TB MIC - ITR (UIC), Institute for Tuberculosis Research; format: cell-based, Mycobacterium tuberculosis; details: Mycobacterium tuberculosis, H37RV, read-out: TB MIC - ITR
NRP Mtb H37Rv cells = assay: Low-oxygen recovery assay (LORA) MIC; format: cell-based, Mycobacterium tuberculosis; details: Mycobacterium tuberculosis, H37RV; NRP Mtb; Tables 1-4 and text; read-out: LORA MIC - ITR
[1] = test system: Mycobacterium smegmatis ATCC 10143; assay: Spectrum of antimicrobial activity; format: cell-based
[2] = test system: Enterobacter aerogenes SRI Collection; assay: Spectrum of antimicrobial activity; format: cell-based
Escherichia coli BAA 201 = assay: Spectrum of antimicrobial activity; format: cell-based
[3] = test system: Escherichia coli ATCC 25922; assay: Spectrum of antimicrobial activity; format: cell-based
[4] = test system: Acinetobacter baumannii BAA 1605; assay: Spectrum of antimicrobial activity; format: cell-based
[5] = test system: Acinetobacter baumannii ATCC 17978; assay: Spectrum of antimicrobial activity; format: cell-based
[6] = test system: Staphylococcus aureus HA-MRSA NRS 382; assay: Spectrum of antimicrobial activity; format: cell-based
[7] = test system: Enterococcus fecalis ATCC 29212; assay: Spectrum of antimicrobial activity; format: cell-based
[8] = test system: Salmonella choleraesuis ATCC 13311; assay: Spectrum of antimicrobial activity; format: cell-based
[9] = test system: Pseudomonas aeruginosa ATCC 27853; assay: Spectrum of antimicrobial activity; format: cell-based
[10] = test system: Moraxella catarrhalis ATCC 25238; assay: Spectrum of antimicrobial activity; format: cell-based
[11] = test system: Salmonella typhimurium tester strain TA98; assay: Salmonella/microsome plate incorporation assay (Ames screen), TA98; format: cell-based
Source text: A liability in developing any bioreductively-activated antimicrobial drug is the potential for mutagenicity. Because the basis for activity of these compounds is the generation of intermediate radical species, undesirable mutagenicity poses a risk, as has been documented for many classes of bioreductive drugs, including the BTO tirapazamine (TPZ).^19,20 The most convenient methodology for assessing the potential to induce genetic damage is to use the plate incorporation method with Salmonella typhimurium strains TA98 and TA100, commonly known as the Ames assay. The Salmonella tester strains have mutations in the histidine operon, a mutation that leads to defective lipopolysaccharide (rfa), and a deletion that covers genes involved in the synthesis of biotin (bio) and in the repair of ultraviolet-induced DNA damage (uvrB).^21,22 These mutations make the strains more permeable to many molecules and increase their susceptibility to the mutagenic effects of these molecules. Given that the hypothesized mechanism of the BTO compounds is to selectively form cytotoxic radical species in bacteria over mammalian cells, a microbial mutagenicity assay is not ideal, but was used to benchmark their activities in this assay. […] Individual plate counts and their means and standard deviations, along with the condition of the background lawn, are presented in SI Table 2.
Experimental compounds were screened for microbial mutagenicity activity using the plate incorporation method with Salmonella typhimurium tester strains TA98 and TA100, in the presence and absence of an Aroclor 1254-induced rat-liver metabolic activation system containing 10% S9 (MA). The presence of the appropriate genetic characteristics was verified for the strains used in this study. Stock solutions were made by dissolving each test sample in dimethyl sulfoxide (DMSO) at 5 mg/ml. These initial stock concentrations were then serially diluted to achieve dose formulations of 100, 50, 10, 5, 1, 0.5, and 0.1 μg/plate (dosing volume 100 μl). Test plates were compared with the control plates for their revertant count and for the condition of the background bacterial lawn. A test article was considered a mutagen when the mean number of revertant colonies on the test plates exceeds the mean solvent control counts by at least a two-fold margin. Dose relatedness was also taken into account when evaluating a mutagenic response. Cytotoxicity was estimated by several parameters: a substantial decrease in the number of revertant colonies on the test plates, clearing or absence of the background bacterial lawn growth, formation of pinpoint nonrevertant colonies, or complete absence of bacterial growth.

[12] = Solubility, shake-flask method; format: physicochemical; details: 0.9% saline solution at pH 7.4, triplicate
Description: The solubility of these two compounds was measured in triplicate using the shake-flask method in a 0.9% saline solution at pH 7.4. Both 8a and 20q had acceptable solubilities of 1.35 mg/mL and 0.28 mg/mL, respectively.
Compounds were ground into a fine powders using a mortar and pestle and added to a 25 mL glass Erlenmeyer flask with 5 mL of a 0.9% saline solution at pH 7.4. Approximately 20 mg of compound was added to each flask to ensure saturation. The flasks were then vigorously stirred using a magnetic stir bar at 25° C. for 48 hours. The samples were then filtered through a Whatman PVDF membrane (0.45 μm pore size) syringe filter. The concentration of compound in the supernatant was then measured using HPLC quantitation at the maximum absorption wavelength for each compound.

[13] = Plasma pharmacokinetics in female mice after oral administration; format: in vivo, mouse; details: female Balb/c mice, po 100 mg/kg
[14] = TA98, with metabolic activation (10% S9), 0.1 μg per plate
[15] = TA98, with metabolic activation (10% S9), 0.5 μg per plate
[16] = TA98, with metabolic activation (10% S9), 1 μg per plate
[17] = TA98, with metabolic activation (10% S9), 5 μg per plate
[18] = TA98, with metabolic activation (10% S9), 10 μg per plate
[19] = TA98, with metabolic activation (10% S9), 50 μg per plate
[20] = TA98, with metabolic activation (10% S9), 100 μg per plate
[21] = TA98, without metabolic activation, 0.1 μg per plate
[22] = TA98, without metabolic activation, 0.5 μg per plate
[23] = TA98, without metabolic activation, 1 μg per plate
[24] = TA98, without metabolic activation, 5 μg per plate
[25] = TA98, without metabolic activation, 10 μg per plate
[26] = TA98, without metabolic activation, 50 μg per plate
[27] = TA98, without metabolic activation, 100 μg per plate

In the case of `[O-][n+]1nc(N2CCCC2)[n+]([O-])c2cc3c(cc21)CCC3` [Compound 20q, 3-(pyrrolidin-1-yl)-7,8-dihydro-6H-indeno[5,6-e][1,2,4]triazine 1,4-dioxide], the MIC (Mtb H37Rv) is reported as 0.46 µg/mL (≈ 1.69 µM), the MIC (NRP Mtb H37Rv cells) is reported as 0.99 µg/mL (≈ 3.64 µM) and the “Antimicrobial activity, Mycobacterium smegmatis” value [1] is reported as 2.5 µg/mL. For the same molecule, the “Antimicrobial activity, Enterobacter aerogenes” value [2] was over 32 µg/mL, the “Antimicrobial activity, Escherichia coli” value (Escherichia coli BAA 201) was over 32 µg/mL and the “Antimicrobial activity, Escherichia coli” value [3] was over 32 µg/mL. For the same molecule, the “Antimicrobial activity, Acinetobacter baumannii” value [4] was over 32 µg/mL, the “Antimicrobial activity, Acinetobacter baumannii” value [5] was over 32 µg/mL and the “Antimicrobial activity, Staphylococcus aureus HA-MRSA” value [6] was over 32 µg/mL. The “Antimicrobial activity, Enterococcus fecalis” value [7] was over 32 µg/mL, the “Antimicrobial activity, Salmonella choleraesuis” value [8] was over 32 µg/mL and the “Antimicrobial activity, Pseudomonas aeruginosa” value [9] was over 32 µg/mL. The “Antimicrobial activity, Moraxella catarrhalis” value [10] was 10 µg/mL, the “Mean revertants per plate” value [11, 14] was 39.5 and the Ratio treated/solvent [11, 14] was 1.4. The “Mean revertants per plate” value [11, 15] was 30.0, the Ratio treated/solvent [11, 15] was 1.1 and the “Mean revertants per plate” value [11, 16] was 47.5. For the same molecule, the Ratio treated/solvent [11, 16] was 1.7, the “Mean revertants per plate” value [11, 17] was 124.0 and the Ratio treated/solvent [11, 17] was 4.5. The “Mean revertants per plate” value [11, 18] was 266.5, the Ratio treated/solvent [11, 18] was 9.8 and the “Mean revertants per plate” value [11, 19] was 988.0. For the same molecule, the Ratio treated/solvent [11, 19] was 36.1, the “Mean revertants per plate” value [11, 20] was 1566.0 and the Ratio treated/solvent [11, 20] was 57.3. For the same molecule, the “Mean revertants per plate” value [11, 21] was 33.0, the Ratio treated/solvent [11, 21] was 1.0 and the “Mean revertants per plate” value [11, 22] was 50.5. For the same molecule, the Ratio treated/solvent [11, 22] was 1.6, the “Mean revertants per plate” value [11, 23] was 85.0 and the Ratio treated/solvent [11, 23] was 2.7. The “Mean revertants per plate” value [11, 24] was 241.0, the Ratio treated/solvent [11, 24] was 7.5 and the “Mean revertants per plate” value [11, 25] was 378.5. For the same molecule, the Ratio treated/solvent [11, 25] was 11.8, the “Mean revertants per plate” value [11, 26] was 797.0 and the Ratio treated/solvent [11, 26] was 24.9. For the same molecule, the “Mean revertants per plate” value [11, 27] was 1133.0, the Ratio treated/solvent [11, 27] was 35.4 and the “number of revertant colonies, TA98” value ([11]; presence and absence of metabolic activation) was “dose-related increases in the number of revertant colonies”. The solubility [12] was 280 µg/mL (≈ 1030 µM) and the “plasma drug concentration at the 24 hr time point” value [13] was “lower than the limit of quantitation”.
